Results from US20240279684A1, “CYTOSOLIC DELIVERY OF GENOME EDITING TOOLS” (SAPREME TECHNOLOGIES B.V., priority 2021, published 2024).
Entries after “also recorded” stand apart in the source; their conditions may differ.

Legend:
Neuro-2A-cells = experiment: Puromycin selection after knock-in of the GFP-Puromycin-LDS; assay type: cell-based, murine
Description: FIG. 12A, B. Puromycin selection after Knock-In of the GFP-Puromycin-LDS. After the knock-out of solute carrier Slc26a4 and integration of GFP-Puromycin-Donor sequence, the cells were cultivated for seven passages until Puromycin selection was started. Different concentrations of Puromycin were applied and the cell viability was observed (A, B). […] Plate wells in rows A-C are numbered 1-4 from left to right. Wells C3-4 were empty.
Subsequent to the co-transfection of Cas9-gRNA-Plasmid and LDS in the presence of GE1741, a Puromycin-mediated selection enabled the isolation of transfected cells and facilitates the identification of donor sequence integration into the genome. For this purpose, different Puromycin concentrations were applied to the transfected cells, in the presence of GE1741. The optimal puromycin concentration should optimally kill non-transfected/non-resistant cells, while sparing cells, which received the resistance through the donor sequence.

Neuro-2A cells = experiment: Transfection efficiency of PD-nanoplexes with/without saponin, flow cytometry (GFP); assay type: cell-based, murine
Method: (§1) After biophysical characterisation had established that nanoplexes of the large plasmid DNA and the poly-lysine peptide were formed, cell experiments were performed: transfections. […] Without wishing to be bound by any theory, the latter effect is most likely due to insufficient complexing of DNA. […] JIMT-1-cells (DSMZ no.: ACC 589) and Neuro-2A- cells (DSMZ no.: ACC 148) were transfected with nanoplexes containing relatively large Cas9-GFP-plasmid, with and without GE1741-Co-application or SO1861-Co-application at a non-toxic concentration, when the cell which is to be transfected is considered. The transfection efficiency of all transfection conditions was measured after 48 h incubation time using flow cytometry by comparison to the negative control in terms of fluorescence intensity (for example, cells contacted with the nanoparticles in the absence of saponin). The efficiency of GE1741-based transfections and SO1861-based transfections was also compared with efficiency of Lipofectamine3000™-based transfection of the nanoparticles. Transfections were performed according to protocols commonly known and applied in the field (Clochard et al., 2020; Sama et al., 2018a; Sama et al., 2017; Sama et al., 2018b). […] Transfection efficiency of GE1741-mediated PD-transfection and SO1861-mediated PD-transfections on Neuro-2A cells and JIMT-1 cells was assessed. Cells were transfected with Cas9-GFP-DNA containing PD-nanoplexes, with and without GE1741 or SO1861 (final concentration of the saponin was 2 μg/ml). In Neuro-2A cells and JIMT-1 cells transection efficiency varied between 30% and 40%. Lipofectamin3000 served as reference. n≥3; a significant difference compared to the GE1741-free transfections or SO1861-free transfections was apparent, U-test, p≤0.05.
FIG. 4A, B. Transfection efficiency of saponin-mediated PD (Cas9-GFP)-transfections on Neuro-2A cells (FIG. 4A) and on JIMT-1-cells (FIG. 4B). Neuro-2A cells (A) and JIMT-1 cells (B) were transfected with GFP-DNA (i.e. a plasmid comprising the GFP DNA) bearing PD-nanoplexes or with Cas9-GFP-DNA bearing PD-nanoplexes, with and without the highest non-toxic saponin Co-administration (GE1741 Co-administration at 2 μg/ml or SO1861 Co-administration at 2 μg/ml). While GFP-DNA-transfections reached high efficiencies of around 70%, approximately 40% of all cells expressed GFP after Cas9-GFP-transfection. […] N≥3; *: significant difference compared to the saponin-free transfection (only nuclease), U-test.
JIMT-1-cells (human breast carcinoma) and Neuro-2A-cells (murine neuroblastoma) were transfected with nanoplexes, containing Cas9-GFP-plasmid, with and without saponin GE1741-co-application or saponin SO1861-co-application (that is to say, the saponin is added to the cell culture together with the addition of the nanoparticles comprising the nucleic acid that is to be transfected in the presence of the saponin), in a non-toxic concentration when the saponins are considered. The mass ratios for the peptide and the nucleic acid (plasmid DNA) in the nanoparticles were selected considering the dynamic light scattering (DLS) measurements and considering the aforementioned earlier assessed toxicity and earlier performed efficiency studies. The transfection efficiency of all transfection conditions was measured after 48 h incubation time via flow cytometry by comparison to the negative control in terms of fluorescence intensity (FIG. 4). […]

JIMT-1 cells = experiment: as above; assay type: cell-based, human; details: GFP-DNA PD-nanoplexes, saponin 2 μg/ml
Method: as §1, with “Cells were transfected with Cas9-GFP-DNA containing PD-nanoplexes, with and without GE1741 or SO1861 (final concentration of the saponin was 2 μg/ml). In Neuro-2A cells and JIMT-1 cells transection efficiency varied between 30% and 40%. Lipofectamin3000 served as reference. n≥3; a significant difference compared to the GE1741-free transfections or SO1861-free transfections was apparent, U-test, p≤0.05.” left out

[1] = system: cells with which the nanoplexes are contacted; experiment: Toxicity of saponin towards cells during transfection; assay type: cell-based
Description: It is part of the invention that the method or the use of the invention is characterized in that the nanoparticle comprises the nanoparticle-forming compound, such as a peptide, such as poly-lysine, and the nucleic acid in a mass ratio in a range of 3:1 to 15:1, preferably in a range of 3:1 to 9:1. Typically, the nanoparticle-forming compound is a poly-lysine peptide such as K16 peptide. Preferred is the method wherein the nucleic acid is a plasmid DNA, at least encoding for a Cas, preferably Cas9 (SEQ ID NO: 1), and optionally also encoding for the gRNA, and wherein the nanoparticles comprise in addition to the plasmid DNA at least one poly-lysine peptide, preferably poly-lysine K16 peptide (poly-lysine peptide consisting of sixteen lysine residues). Alternatively, the poly-lysine peptide is a peptide consisting of 8-25 lysine residues, preferably 10-20, more preferably 12-18. High in vitro transfection efficiency is obtained with the method of the invention when nanoparticles encompassing plasmid DNA, K16 peptide are prepared and applied, and are contacted with cells in the presence of a saponin selected from GE1741 and SO1861, and preferably the saponin is GE1741. Typically, the saponin concentration during transfection of the plasmid DNA into selected target cells in vitro is 1 μg/mL-5 μg/mL, preferably 2-4 μg/mL. […] Cells are typically contacted with a composition comprising the nanoplexes and a separate composition comprising the saponin, preferably GE1741. Thus, typically, the nanoparticles comprise the poly-lysine peptide and the nucleic acid, for example at least a plasmid DNA encoding for a Cas, preferably Cas9 (SEQ ID NO: 1), or a Cas with at least 90% sequence identity with this Cas9, preferably 90-99.5% sequence identity, such as 92%, 93%, 94%, 95% or 95-99%.

| SMILES | effect on cells (selection) (Neuro-2A-cells; 0.5 μg/mL) | effect on cells (selection) (Neuro-2A-cells; 1 μg/mL) | effect on cells (selection) (Neuro-2A-cells; 2 μg/mL) | effect on cells (selection) (Neuro-2A-cells; 2-3 μg/mL) | transfection efficiency (cells expressing GFP) (Neuro-2A cells; GFP-DNA PD-nanoplexes, saponin 2 μg/ml, Neuro-2A) | transfection efficiency compared with Lipofectamine3000 (Neuro-2A cells; nanoplexes of relatively large DNA plasmid and poly-lysine, saponin present) | transfection efficiency (cells expressing GFP) (JIMT-1 cells) | highest non-toxic saponin Co-administration ([1]; Neuro-2A and JIMT-1 transfections) [µg/mL] | toxic activity towards the cells ([1]; saponin concentration of 1 μg/mL-5 μg/mL, applied together with the nanoplexes) |
| --- | --- | --- | --- | --- | --- | --- | --- | --- | --- |
| COc1ccc(C[C@H](N)C(=O)N[C@H]2[C@@H](O)[C@H](n3cnc4c(N(C)C)ncnc43)O[C@@H]2CO)cc1 [Puromycin] | no significant effect | incomplete selection; also recorded: decrease of confluence | decrease of confluence | diminished nearly all cells | – | – | – | – | – |
| CC(=O)OC1C(C)OC(OC2C(C)OC(OC(=O)[C@]34CCC(C)(C)CC3C3=CCC5[C@@]6(C)CC[C@H](OC7OC(C(=O)O)C(O)C(OC8OCC(O)C(O)C8O)C7OC7OC(CO)C(O)C(O)C7O)[C@@](C)(C=O)C6CC[C@@]5(C)C3(C)CC4O)C(OC3OC(C)C(OC4OCC(O)C(OC5OC(CO)C(O)C(O)C5O)C4O)C(O)C3O)C2O)C(O)C1OC1OCC(O)C(O)C1O (stereo partly drawn) [SO1861] | – | – | – | – | around 70% | higher than obtainable with current gold standard Lipofectamine3000™ | around 70% | 2 | not exhibiting toxic activity |
